Data on 27 molecules can be found in patent US20260062412A1, “NITROGEN-CONTAINING HETEROCYCLIC COMPOUND HAVING MYT1 INHIBITORY ACTIVITY” (CHUGAI SEIYAKU KABUSHIKI KAISHA, priority 2023, published 2026).

For this assay, the target named is MYT1 protein (Homo sapiens (Human), UniProt Q99640). Kind of assay: Test for binding to ATP binding site of MYT1 (Kinase Tracer 178 / Eu-Anti-GST antibody TR-FRET). To be noted: ATP binding site of MYT1, 30 minutes at room temperature. For orientation: In TR-FRET formats the signal depends on donor and acceptor labels being close together.
MYT1 protein, sequence (Q99640 whole entry): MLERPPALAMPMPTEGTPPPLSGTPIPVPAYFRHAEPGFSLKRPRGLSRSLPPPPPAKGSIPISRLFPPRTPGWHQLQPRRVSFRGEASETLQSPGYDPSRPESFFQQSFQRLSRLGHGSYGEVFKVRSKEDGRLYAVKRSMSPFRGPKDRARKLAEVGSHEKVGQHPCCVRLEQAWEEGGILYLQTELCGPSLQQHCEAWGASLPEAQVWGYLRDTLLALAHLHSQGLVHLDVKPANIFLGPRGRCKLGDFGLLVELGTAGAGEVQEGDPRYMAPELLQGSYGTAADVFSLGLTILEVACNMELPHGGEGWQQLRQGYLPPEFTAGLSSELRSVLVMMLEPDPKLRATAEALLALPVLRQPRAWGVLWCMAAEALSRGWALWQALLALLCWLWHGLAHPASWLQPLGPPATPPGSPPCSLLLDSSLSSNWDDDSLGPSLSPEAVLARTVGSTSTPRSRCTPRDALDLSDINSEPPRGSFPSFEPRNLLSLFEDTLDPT

Some results are limits rather than exact numbers.

As a reminder, the IC50 is the concentration at which inhibition is half-maximal. Consider `Nc1c(-c2cc(F)c(F)c3[nH]ncc23)c2cc(OC(F)(F)F)c3ncccc3c2[nH]c1=O` [Compound C72, 3-Amino-4-(6,7-difluoro-1H-indazol-4-yl)-6-(trifluoromethoxy)-1H-1,7-phenanthrolin-2-one], for which the IC50 amounted to 6.2 nM.
For the molecule `Nc1c(-c2ccc(Cl)c3[nH]ncc23)c2cc(Br)c3ncccc3c2[nH]c1=O` [Compound C73, 3-Amino-6-bromo-4-(7-chloro-1H-indazol-4-yl)-1H-1,7-phenanthrolin-2-one], the IC50 was < 14 nM.
The result for `COc1cc2c(-c3ccc(Cl)c4[nH]ncc34)c(N)c(=O)[nH]c2c2cccnc12` [Compound C74, 3-Amino-4-(7-chloro-1H-indazol-4-yl)-6-methoxy-1H-1,7-phenanthrolin-2-one] reads 0.83 nM.
The result for `Nc1c(-c2cc(F)c(Cl)c3[nH]ncc23)c2cc(Br)c3ncccc3c2[nH]c1=O` [Compound C75, 3-Amino-6-bromo-4-(7-chloro-6-fluoro-1H-indazol-4-yl)-1H-1,7-phenanthrolin-2-one] reads 1.9 nM.
With `Nc1c(-c2ccc(Cl)c3[nH]ncc23)c2cc(Cl)c3ncccc3c2[nH]c1=O` [Compound C77, 3-Amino-6-chloro-4-(7-chloro-1H-indazol-4-yl)-1H-1,7-phenanthrolin-2-one] the figure was 8.5 nM; with `Nc1c(-c2cncc3[nH]ncc23)c2cc(Br)c3ncccc3c2[nH]c1=O` [Compound C80, 3-Amino-6-bromo-4-(1H-pyrazolo[3,4-c]pyridin-4-yl)-1H-1,7-phenanthrolin-2-one], 100 nM.
`Nc1c(-c2ccnc3[nH]ncc23)c2cc(Br)c3ncccc3c2[nH]c1=O` [Compound C81, 3-Amino-6-bromo-4-(1H-pyrazolo[3,4-b]pyridin-4-yl)-1H-1,7-phenanthrolin-2-one] gave an IC50 of 49 nM.
With `Nc1c(-c2ccnc3[nH]ncc23)c2cc(C3CC3)c3ncccc3c2[nH]c1=O` [Compound C82, 3-Amino-6-cyclopropyl-4-(1H-pyrazolo[3,4-b]pyridin-4-yl)-1H-1,7-phenanthrolin-2-one] the figure was 11 nM; with `N#Cc1cc2c(-c3ccc(F)c4[nH]ncc34)c(N)c(=O)[nH]c2c2cccnc12` [Compound C87, 3-Amino-4-(7-fluoro-1H-indazol-4-yl)-2-oxo-1H-1,7-phenanthroline-6-carbonitrile], 18 nM.
Take `C=Cc1cc2c(-c3ccc(F)c4[nH]ncc34)c(N)c(=O)[nH]c2c2cccnc12` [Compound C89, 3-Amino-6-ethenyl-4-(7-fluoro-1H-indazol-4-yl)-1H-1,7-phenanthrolin-2-one]: the 50% inhibitory concentration (IC50) came out at 3.9 nM.
Turning to `CN(C)C(=O)Cc1cc2c(-c3ccc(F)c4[nH]ncc34)c(N)c(=O)[nH]c2c2cccnc12` [Compound C93, 2-[3-Amino-4-(7-fluoro-1H-indazol-4-yl)-2-oxo-1H-1,7-phenanthrolin-6-yl]-N,N-dimethylacetamide], the IC50 is 32 nM.
The molecule `Nc1c(-c2ccc(F)c3[nH]ncc23)c2cc(C3=COCC3)c3ncccc3c2[nH]c1=O` [Compound C94, 3-Amino-6-(2,3-dihydrofuran-4-yl)-4-(7-fluoro-1H-indazol-4-yl)-1H-1,7-phenanthrolin-2-one] registered an IC50 of 8.4 nM.
The result for `N#CC1(c2cc3c(-c4ccc(F)c5[nH]ncc45)c(N)c(=O)[nH]c3c3cccnc23)CC1` [Compound C95, 1-[3-Amino-4-(7-fluoro-1H-indazol-4-yl)-2-oxo-1H-1,7-phenanthrolin-6-yl]cyclopropane-1-carbonitrile] reads 8.7 nM.
The result for `Nc1c(-c2ccc(F)c3[nH]ncc23)c2cc(C3CCCO3)c3ncccc3c2[nH]c1=O` (stereo not drawn) [Compound C96, 3-Amino-4-(7-fluoro-1H-indazol-4-yl)-6-(oxolan-2-yl)-1H-1,7-phenanthrolin-2-one] reads 5.3 nM.
With `CC(C)(C)OC(=O)N1CC(c2cc3c(-c4ccc(F)c5[nH]ncc45)c(N)c(=O)[nH]c3c3cccnc23)C1` [Compound C97, tert-Butyl 3-[3-amino-4-(7-fluoro-1H-indazol-4-yl)-2-oxo-1H-1,7-phenanthrolin-6-yl]azetidine-1-carboxylate] the figure was 22 nM; with `CC(C)(C)OC(=O)N1CCC(c2cc3c(-c4ccc(F)c5[nH]ncc45)c(N)c(=O)[nH]c3c3cccnc23)CC1` [Compound C99, tert-Butyl 4-[3-amino-4-(7-fluoro-1H-indazol-4-yl)-2-oxo-1H-1,7-phenanthrolin-6-yl]piperidine-1-carboxylate], 21 nM.
For `C=C(C)c1cc2c(-c3ccc(F)c4[nH]ncc34)c(N)c(=O)[nH]c2c2cccnc12` [Compound C103, 3-Amino-4-(7-fluoro-1H-indazol-4-yl)-6-prop-1-en-2-yl-1H-1,7-phenanthrolin-2-one], the half-inhibitory concentration (IC50) was 4.3 nM.
`CC(C)c1cc2c(-c3ccc(F)c4[nH]ncc34)c(N)c(=O)[nH]c2c2cccnc12` [Compound C104, 3-Amino-4-(7-fluoro-1H-indazol-4-yl)-6-propan-2-yl-1H-1,7-phenanthrolin-2-one] returned a concentration for half-maximal inhibition (IC50) of 3.4 nM.
The result for `CC(C)Cc1cc2c(-c3ccc(F)c4[nH]ncc34)c(N)c(=O)[nH]c2c2cccnc12` [Compound C105, 3-Amino-4-(7-fluoro-1H-indazol-4-yl)-6-(2-methylpropyl)-1H-1,7-phenanthrolin-2-one] reads 5 nM.
The result for `CCCc1cc2c(-c3ccc(F)c4[nH]ncc34)c(N)c(=O)[nH]c2c2cccnc12` [Compound C106, 3-Amino-4-(7-fluoro-1H-indazol-4-yl)-6-propyl-1H-1,7-phenanthrolin-2-one] reads 2.7 nM; that for `CC(C)CCc1cc2c(-c3ccc(F)c4[nH]ncc34)c(N)c(=O)[nH]c2c2cccnc12` [Compound C107, 3-Amino-4-(7-fluoro-1H-indazol-4-yl)-6-(3-methylbutyl)-1H-1,7-phenanthrolin-2-one], 8.1 nM.
The result for `CCC(CC)c1cc2c(-c3ccc(F)c4[nH]ncc34)c(N)c(=O)[nH]c2c2cccnc12` [Compound C108, 3-Amino-4-(7-fluoro-1H-indazol-4-yl)-6-pentan-3-yl-1H-1,7-phenanthrolin-2-one] reads 37 nM.
Regarding `CCC(C)c1cc2c(-c3ccc(F)c4[nH]ncc34)c(N)c(=O)[nH]c2c2cccnc12` (stereo not drawn) [Compound C109, 3-Amino-6-butan-2-yl-4-(7-fluoro-1H-indazol-4-yl)-1H-1,7-phenanthrolin-2-one], the IC50 is 4.6 nM.
The molecule `CP(C)(=O)c1cc2c(-c3ccc(F)c4[nH]ncc34)c(N)c(=O)[nH]c2c2cccnc12` [Compound C110, 3-Amino-6-dimethylphosphoryl-4-(7-fluoro-1H-indazol-4-yl)-1H-1,7-phenanthrolin-2-one] yielded an IC50 of 14 nM.
The result for `Nc1c(-c2ccc(F)c3[nH]ncc23)c2cc(I)c3ncccc3c2[nH]c1=O` [Compound C111, 3-Amino-4-(7-fluoro-1H-indazol-4-yl)-6-iodo-1H-1,7-phenanthrolin-2-one] reads 4.9 nM; that for `Nc1c(-c2ccc(F)c3[nH]ncc23)c2cc(N3CCCC3=O)c3ncccc3c2[nH]c1=O` [Compound C112, 3-Amino-4-(7-fluoro-1H-indazol-4-yl)-6-(2-oxopyrrolidin-1-yl)-1H-1,7-phenanthrolin-2-one], 78 nM; that for `Nc1c(-c2ccc(F)c3[nH]ncc23)c2cc(N3CCCC3)c3ncccc3c2[nH]c1=O` [Compound C113, 3-Amino-4-(7-fluoro-1H-indazol-4-yl)-6-pyrrolidin-1-yl-1H-1,7-phenanthrolin-2-one], 4.6 nM.
